Results on three compounds are retold here after patent US20180021360A1, “Combination Therapy Regimen For Treatment Of Selected HCV Genotypes” (JANSSEN PHARMACEUTICALS, INC., priority 2016, published 2018).

The test system of series [1] is CYP. In words: CYP inhibition potential. Particulars: any CYP.
In series [2] the target is T1, OATP1B1 (Homo sapiens, UniProt Q9Y6L6).
T1 sequence (Q9Y6L6 1-691): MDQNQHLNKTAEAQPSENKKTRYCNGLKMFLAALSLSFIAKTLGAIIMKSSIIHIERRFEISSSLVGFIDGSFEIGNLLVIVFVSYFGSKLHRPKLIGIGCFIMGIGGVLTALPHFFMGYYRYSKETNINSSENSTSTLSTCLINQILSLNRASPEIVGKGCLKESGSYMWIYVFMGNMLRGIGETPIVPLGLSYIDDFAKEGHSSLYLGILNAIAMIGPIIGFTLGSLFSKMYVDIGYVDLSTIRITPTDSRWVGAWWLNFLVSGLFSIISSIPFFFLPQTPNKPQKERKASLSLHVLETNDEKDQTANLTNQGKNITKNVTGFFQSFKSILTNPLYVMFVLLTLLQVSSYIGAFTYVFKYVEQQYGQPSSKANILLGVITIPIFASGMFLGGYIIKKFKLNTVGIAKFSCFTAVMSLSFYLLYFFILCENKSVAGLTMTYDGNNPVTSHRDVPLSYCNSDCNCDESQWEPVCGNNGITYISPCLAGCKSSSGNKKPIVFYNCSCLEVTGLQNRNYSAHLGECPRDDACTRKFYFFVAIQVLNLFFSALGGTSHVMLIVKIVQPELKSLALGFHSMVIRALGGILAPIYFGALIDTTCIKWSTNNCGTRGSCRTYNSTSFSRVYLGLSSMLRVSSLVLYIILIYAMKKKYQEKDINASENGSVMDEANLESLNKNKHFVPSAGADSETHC
Particulars: cited from earlier work.

A short description of series [3]: Phase-1 drug-drug interaction study of Odalasvir, Simeprevir and Compound (III) in healthy volunteers. The class given is in vivo, human. Particulars: for increase of exposure caused by Odalasvir / increase of exposure caused by SMV: DDI study results. An excerpt:
The following daily doses were employed:

Series [4] concerns the target T2, BCRP (Homo sapiens, UniProt Q9UNQ0).
T2 sequence (Q9UNQ0 1-655): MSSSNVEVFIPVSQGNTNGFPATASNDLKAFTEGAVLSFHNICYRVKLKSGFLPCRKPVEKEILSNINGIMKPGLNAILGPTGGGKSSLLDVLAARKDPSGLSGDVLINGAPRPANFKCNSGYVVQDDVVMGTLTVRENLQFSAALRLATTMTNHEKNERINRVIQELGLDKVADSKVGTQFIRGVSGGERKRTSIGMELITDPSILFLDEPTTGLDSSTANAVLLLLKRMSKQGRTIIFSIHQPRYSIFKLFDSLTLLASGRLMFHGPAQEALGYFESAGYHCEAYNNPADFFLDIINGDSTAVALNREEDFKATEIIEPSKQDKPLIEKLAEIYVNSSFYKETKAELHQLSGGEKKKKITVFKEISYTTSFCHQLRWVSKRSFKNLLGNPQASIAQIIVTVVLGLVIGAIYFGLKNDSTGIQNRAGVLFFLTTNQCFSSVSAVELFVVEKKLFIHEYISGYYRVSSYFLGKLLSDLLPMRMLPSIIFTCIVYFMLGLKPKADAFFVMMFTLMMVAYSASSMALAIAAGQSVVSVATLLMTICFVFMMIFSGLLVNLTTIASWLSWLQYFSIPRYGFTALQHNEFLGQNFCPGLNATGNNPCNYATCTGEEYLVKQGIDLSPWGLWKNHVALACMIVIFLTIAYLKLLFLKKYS
The conditions noted are these: cited from earlier work.

Series [5] concerns HCV genotype 3. Description: activity against genotype 3 in vitro. More on the design: species or system hepatitis C virus.
A short description of series [6]: PK of single agents vs fixed dose combinations, single dose in healthy volunteers (Example 13). It counts as in vivo, human. The conditions noted are these: mean ± SD; for Cmax: Arm 4: FDC01 (SMV 100 mg + ODV 50 mg spray dried with copovidone and poloxamers + Compound (III) 800 mg). The procedure:
SMV (100 mg), ODV (50 mg), and Compound (III) (800 mg) were administered as three different formulations or together as single doses in vivo to healthy volunteers. The arms of the study included: • Arm 1 (Reference Arm): Single oral doses of single agents, one SMV 100-mg capsule, one ODV 50-mg tablet as granule layered solid dispersion with copovidone and poloxamers, and two Compound (III) 400-mg tablets, administered together. • Arm 2: Single oral dose of fixed dose combination (FDC02): SMV 100 mg+ODV 50 mg as a spray dried solid dispersion with HPMC-AS L in a ratio ODV/HPMC-AS L 1/1 w/w+Compound (III) 800 mg • Arm 3: Single oral dose of fixed dose combination (FDC04): SMV 100 mg+ODV 50 mg as a spray dried solid dispersion with HPMC-AS L in a ratio ODV/HPMC-AS L 1/3 w/w+Compound (III) 800 mg • Arm 4: Single oral dose of fixed dose combination (FDC01): SMV 100 mg+ODV 50 mg as a spray dried solid dispersion with copovidone and poloxamers+Compound (III) 800 mg
PK parameters, including Cmax, tmax, AUClast, and AUC∞ were measured for Compound (III), ODV, SMV, and metabolites Compound A-1 and Compound A-3 for each Arm of the study. Arms that included fixed dose combinations (FDC) (Arm 2, Arm 3, and Arm 4) were then compared to a single oral dose (Arm 1, the reference Arm). Table 9, Table 10, Table 11, Table 12 and Table 13 display relevant PK parameters and FIG. 9, FIG. 10, FIG. 11, FIG. 12, and FIG. 13 depict the plasma concentration over time of SMV, ODV, Compound A-1, and Compound A-3 for each Arm of the study.

The target of series [7] is T3, OATP1B3 (Homo sapiens, UniProt Q9NPD5).
T3 sequence (Q9NPD5 1-702): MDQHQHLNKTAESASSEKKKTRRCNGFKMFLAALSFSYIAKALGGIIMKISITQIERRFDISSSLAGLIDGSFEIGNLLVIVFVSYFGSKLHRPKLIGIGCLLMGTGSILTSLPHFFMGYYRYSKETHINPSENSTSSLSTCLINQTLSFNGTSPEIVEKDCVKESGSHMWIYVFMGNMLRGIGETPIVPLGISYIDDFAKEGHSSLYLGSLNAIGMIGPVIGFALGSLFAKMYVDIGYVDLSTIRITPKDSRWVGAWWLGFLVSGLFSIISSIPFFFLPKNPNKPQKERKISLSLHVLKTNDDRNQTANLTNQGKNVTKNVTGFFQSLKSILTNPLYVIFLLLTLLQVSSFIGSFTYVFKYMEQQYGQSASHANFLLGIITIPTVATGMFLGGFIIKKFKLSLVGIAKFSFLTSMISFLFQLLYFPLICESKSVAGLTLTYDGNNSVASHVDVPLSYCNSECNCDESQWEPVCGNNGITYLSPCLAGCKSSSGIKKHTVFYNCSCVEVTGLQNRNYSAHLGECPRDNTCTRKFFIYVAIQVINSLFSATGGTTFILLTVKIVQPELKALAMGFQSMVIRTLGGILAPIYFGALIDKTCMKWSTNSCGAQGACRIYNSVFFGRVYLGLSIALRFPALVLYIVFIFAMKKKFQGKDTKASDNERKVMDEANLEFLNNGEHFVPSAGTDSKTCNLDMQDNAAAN
Particulars: cited from earlier work.

Series [8] is described as follows: Phase 2a open-label combination study, pharmacokinetics. The class given is in vivo, human. Particulars: in vivo. The procedure: A randomized, Phase 2a, open-label study was carried out to evaluate the safety, pharmacokinetics and efficacy of the combination of Compound (III), Odalasvir and Simeprevir in Genotype 1 treatment-naïve subjects with chronic hepatitis C. Other treatment-naïve subjects included Genotype 2, 3, 4, 5 and 6.
The aim of the study was to determine the efficacy, pharmacokinetics (PK), and safety of Compound (II)+Odalasvir±SMV in HCV-infected subjects.
This was an open-label study evaluating various dosing regimens of Compound (III)+Odalasvir±SMV for 6-8 weeks in treatment-nave HCV-infected subjects with varying clinical characteristics (e.g., GT 1 or 3, presence/absence of compensated Child Pugh A cirrhosis). Efficacy, PK and safety evaluations were conducted during and through 24 weeks post dosing. Up to 15 cohorts were enrolled; data was generated from cohorts that have completed dosing.

Where [9] appears, read: Arm 1 (reference): single agents.

In the case of `CC(C)OC(=O)[C@H](C)N[P@](=O)(OC[C@@]1(F)O[C@@H](n2ccc(=O)[nH]c2=O)[C@](C)(O)[C@@H]1O)Oc1ccccc1` [Compound (III), isopropyl ((S)-(((2S,3S,4R,5R)-5-(2,4-dioxo-3,4-dihydropyrimidin-1 (2H)-yl)-2-fluoro-3,4-dihydroxy-4-methyltetrahydrofuran-2-yl)methoxy)(phenoxy)phosphoryl)-L-alaninate], the CYP inhibition potential entry in series [1] is given as “limited”. Further, the “in vitro inhibition of OATP1B1” value in series [2] is listed as “no in vitro inhibition”. Further, the “increase of exposure caused by Odalasvir” value in series [3] stood at 4 ×. Besides, the “increase of exposure caused by SMV” value in series [3] amounted to 3 ×. Besides, the “bioavailability when SMV and ODV are co-administered with Compound (III), compared to Compound (III) alone” value in series [3] (both, human, in vivo) is listed as “approximately 8 fold”. The “in vitro inhibition of BCRP” value in series [4] was “no in vitro inhibition”. Besides, the “activity against genotype 3 in vitro” value in series [5] is reported as “effective”. Also, the t1/2term is given as 0.6 ± 0.1 h in series [6] (setting [9]), 0.7 ± 0.2 h in series [6] (Arm 2: FDC02), 0.7 ± 0.1 h in series [6] (Arm 3: FDC04) and 0.6 ± 0.1 h in series [6] (Arm 4: FDC01). For the same compound, the “in vitro inhibition of OATP1B3” value in series [7] is listed as “no in vitro inhibition”.

In the case of `C[C@]1(O)[C@H](n2ccc(=O)[nH]c2=O)O[C@](F)(CO)[C@H]1O` [Compound A-1], in series [3], the “increase of exposure caused by Odalasvir” value came out at 1.5 × and the “increase of exposure caused by SMV” value is “no apparent effect”. Moreover, in series [8], the “change of A-1 exposure on increasing the Compound (III) dose from 400 to 800 mg” value was “less than proportionally”. The t1/2term in series [6] (setting [9]) is 19.6 ± 2.7 h. In addition, in series [6] (Arm 2: FDC02), the “AUC∞” value was determined as 4369 ± 1345 ng·h/mL and the t1/2term is on record as 20.5 ± 3.3 h. In series [6] (Arm 3: FDC04), the AUClast was determined as 4714 ± 1310 ng·h/mL and the t1/2term was determined as 20.2 ± 3.5 h. The Cmax in series [6] was found to be 607 ± 208 ng/mL. In addition, in series [6] (Arm 4: FDC01), the AUClast is 4693 ± 1418 ng·h/mL, the “AUC∞” value was determined as 4555 ± 787 ng·h/mL and the t1/2term was determined as 18.3 ± 3.5 h.

On to `C[C@H](NP(=O)(O)OC[C@@]1(F)O[C@@H](n2ccc(=O)[nH]c2=O)[C@](C)(O)[C@@H]1O)C(=O)O` [Compound A-3], for which, in series [3], the “increase of exposure caused by Odalasvir” value is 2.6 × and the “increase of exposure caused by SMV” value was determined as 1.6 ×. In addition, in series [6] (setting [9]), the t1/2term amounted to 2.6 ± 1.4 h. Further, in series [6] (Arm 2: FDC02), the AUClast amounted to 790 ± 157 ng·h/mL, the “AUC∞” value was found to be 817 ± 133 ng·h/mL and the t1/2term is given as 2.3 ± 0.6 h. Further, the t1/2term in series [6] (Arm 3: FDC04) was 2.9 ± 1.5 h. In addition, the Cmax in series [6] is reported as 197 ± 62.1 ng/mL. For the same compound, in series [6] (Arm 4: FDC01), the AUClast was 909 ± 244 ng·h/mL, the “AUC∞” value amounted to 926 ± 245 ng·h/mL and the t1/2term was determined as 2.5 ± 0.7 h.

As a reminder, the Cmax is the highest concentration seen after dosing.
